Where “and” joins values, the source holds several entries; their conditions need not be identical. Identical values can stand only once. *1 amine or outer side, *2 acyl side, *3 side chain or, on linkers, in order; H or OH if unused. Where no end group is shown, it is not given here. [ ]: non-standard residue; d: D form. Benzoyl(5-NH,2-NO2) = O=C(c1cc(N[*:1])ccc1[N+](=O)[O-])[*:2]; 2Abz = Nc1ccccc1C(=O)O
What was measured:
[1] = system: urine taken from a person diagnosed with intestinal cancer; assay: RP HPLC analysis of substrate cleavage in urine from a person with intestinal cancer; type: biochemical, human; conditions: randomly selected urine sample from a person diagnosed with intestinal cancer
[2] = system: at least one enzyme of the studied material; assay: Dependence of substrate hydrolysis on reaction pH; type: biochemical; conditions: FIG. 4
Method: Furthermore, measurements concerning the dependence of the proteolytic activity of the representative compound according to the invention on the reaction pH were performed.

[3] = system: proteolytic enzymes in urine from a subject suffering from intestinal cancer; assay: Hydrolysis of the chromogenic substrate in urine from subjects with intestinal cancer (absorbance at 405 nm); type: biochemical, human; conditions: for absorbance: 405 nm, 60 minutes, 37° C., pH 8.0, triplicate
Method: The activity of the novel compounds according to the invention was studied in a group of 20 subjects diagnosed with intestinal cancer using the representative compound according to the invention. […] The remaining compounds according to the invention are characterized by the analogous mechanism of action. For this purpose, the representative compound according to the invention, ABZ^1-Asn^2-Phe^3-Ser^4-Pro^5-ANB^6—NH2, was dissolved in dimethyl sulfoxide (at a concentration of 0.5 mg/mL) and then 50 μL of the solution was mixed with 120 μL of a buffer (200 mM Tris-HCl, pH 8.0) and 80 μL of urine from a subject suffering from intestinal cancer. The measurement was performed on a 96-well plate designed for measuring absorbance and each sample was analysed in triplicate at the temperature of 37° C. The duration of the measurement was 60 minutes. During the measurement, the wavelength characteristic for the chromophore (ANB-NH2) being released was monitored at the wavelength 405 nm (range 380-430 nm).

[4] = system: urine samples taken from healthy persons; assay: Hydrolysis of the chromogenic substrate in urine from healthy subjects (absorbance at 405 nm); type: biochemical, human; conditions: for absorbance: healthy subject, 405 nm, 60 minutes, 37° C., pH 8.0, triplicate

## ABZ-Asn-Phe-Ser-Pro-ANB-NH2 ([2Abz]NFSP-{Benzoyl(5-NH,2-NO2)-NH2}) [chromogenic/fluorogenic peptide substrate; ABZ is 2-aminobenzoic acid, ANB-NH2 is amide of 5-amino-2-nitrobenzoic acid]
[1]
  cleavage products by RP HPLC: cleaves into the peptide fragment ABZ-Asn-Phe-Ser-Pro-OH and the chromophore group of the compound (ANB-NH2)
[2]
  dependence of the proteolytic activity on the reaction pH: maximum activity at alkaline pH
[3]; all samples 1-20 from persons suffering from intestinal cancer
  cleavage of the substrate: underwent cleavage
[3]; urine sample 3, intestinal cancer
  absorbance: 0.035 and 0.034 and 0.036
[3]; urine sample 4, intestinal cancer
  absorbance: 0.0314 and 0.0313 and 0.0385
[3]; urine sample 7, intestinal cancer
  absorbance: 0.041 and 0.039 and 0.04
[3]; urine sample 8, intestinal cancer
  absorbance: 0.0257 and 0.0219 and 0.0258
[3]; urine sample 9, intestinal cancer
  absorbance: 0.056 and 0.064 and 0.06
[3]; urine sample 10, intestinal cancer
  absorbance: 0.025 and 0.024 and 0.026
[3]; urine sample 11, intestinal cancer
  absorbance: 0.015 and 0.016 and 0.027
[3]; urine sample 12, intestinal cancer
  absorbance: 0.0916 and 0.0979 and 0.101
[3]; urine sample 13, intestinal cancer
  absorbance: 0.046 and 0.0337 and 0.0461
[3]; urine sample 14, intestinal cancer
  absorbance: 0.025 and 0.018 and 0.0182
[3]; urine sample 15, intestinal cancer
  absorbance: 0.031 and 0.028 and 0.02
[3]; urine sample 16, intestinal cancer
  absorbance: 0.0183 and 0.0293 and 0.0246
[3]; urine sample 17, intestinal cancer
  absorbance: 0.073 and 0.07 and 0.046
[3]; urine sample 18, intestinal cancer
  absorbance: 0.016 and 0.0186 and 0.0202
[3]; urine sample 19, intestinal cancer
  absorbance: 0.036 and 0.04 and 0.038
[4]; urine sample 1Z
  absorbance: 0.00000
[4]; urine sample 2Z
  absorbance: 0.00000
[4]; urine sample 3Z
  absorbance: 0.00000
[4]; urine sample 4Z
  absorbance: 0.00000
[4]; urine sample 5Z
  absorbance: 0.00000
[4]; urine sample 6Z
  absorbance: 0.00000
[4]; urine sample 7Z
  absorbance: 0.00000
[4]; urine sample 8Z
  absorbance: 0.00000
[4]; urine sample 9Z
  absorbance: 0.00000
[4]; urine sample 10Z
  absorbance: 0.00000
[4]; urine sample 11Z
  absorbance: 0.00000
[4]; urine sample 12Z
  absorbance: 0.00000
[4]; urine sample 13Z
  absorbance: 0.00000
[4]; urine sample 14Z
  absorbance: 0.00000
[4]; urine sample 15Z
  absorbance: 0.00000
[4]; urine sample 16Z
  absorbance: 0.00000
[4]; urine sample 17Z
  absorbance: 0.00000
[4]; urine sample 18Z
  absorbance: 0.00000
[4]; urine sample 19Z
  absorbance: 0.00000
[4]; urine sample 20Z
  absorbance: 0.00000
[4]; urine samples from healthy persons 1Z to 20Z
  increase in absorbance / hydrolysis of the tested compound: does not lead to an increase in absorbance

Reference: US20250206777A1, “COMPOUND - DIAGNOSTIC MARKER FOR INTESTINAL CANCER, METHOD FOR DETECTING ENZYMATIC ACTIVITY, METHOD FOR DIAGNOSIS OF INTESTINAL CANCER, KIT COMPRISING THE COMPOUND, USES OF THE COMPOUND AND METHOD FOR THE TREATMENT OF INTESTINAL CANCER” (URTESTE S.A., priority 2022, published 2025)
